{"source": "paper PMC8347709", "about": "(International Journal of Molecular Sciences, 2021)", "key": {"[1]": {"test": "quantification of radiometabolites in vivo", "conditions": "female CD-1 mice, 30 min p.i.", "description": "Radiochemical yield, radiochemical purity and analyses of plasma and brain samples were assessed via reversed-phase HPLC (RP-HPLC) in gradient mode (0–10 min: 10% MeCN/20 mM NH4OAcaq., 10–30 min: 10%→90% MeCN/20 mM NH4OAcaq., 30–35 min: 90% MeCN/20 mM NH4OAcaq., 35–36 min: 90%→10% MeCN/20 mM NH4OAcaq. 36–45 min: 10% MeCN/20 mM NH4OAcaq.).\nAt 30 min p.i., the animals were anaesthetised and blood was withdrawn by retrobulbar bleeding using glass capillaries. Immediately afterwards, the animals were euthanised by cervical dislocation, and released urine was sampled. Blood plasma was obtained from the whole blood sample by centrifugation (2 min, 8000 rpm, room temperature). In addition, the brain and spleen were isolated and homogenised in 1 mL demineralised water on ice (1000 rpm, 10 strokes; glass vessel, PTFE plunger; Potter S, B. Braun Biotech International, Göttingen, Germany).\nThe samples were further processed for subsequent radio-chromatographic analyses. Two consecutive extractions were performed as duplicates for plasma and brain determinations. Plasma, brain and spleen samples were added to an ice-cold MeOH/H2O mixture (9:1, v/v). The samples were vortexed for 3 min, incubated on ice for 5 min and centrifuged at 10,000 rpm for 5 min. Supernatants were collected, and the precipitates were re-dissolved in 100 µL of extraction solvent, and the extraction procedure was repeated. The activities of supernatants and precipitates were measured in a γ-counter (1480 WIZARD, Fa. Perkin Elmer, Turku, Finland), and the extraction efficiencies were calculated as the ratio of radioactivity in the supernatant to the radioactivity in the original sample (supernatant + precipitate). The supernatants from both extractions were combined, concentrated at 70 °C under argon stream up to a remaining volume of 100 µL, and subsequently analysed by analytical radio-HPLC with a gradient system (see quality control section)."}, "[2]": {"test": "LogD7.4 by shake-flask method", "format": "physicochemical", "conditions": "n-octanol/phosphate-buffered saline, n-octanol/PBS pH 7.4, room temperature", "description": "The measurement was performed twice in triplicate."}, "[3]": {"target": "T1, CB2R expression in the spleen (Rattus norvegicus, UniProt Q9QZN9)", "T1 construct": "from tissue; host or cells: spleen of living male Wistar Hun rats (in vivo PET)", "T1 sequence (Q9QZN9 1-360)": "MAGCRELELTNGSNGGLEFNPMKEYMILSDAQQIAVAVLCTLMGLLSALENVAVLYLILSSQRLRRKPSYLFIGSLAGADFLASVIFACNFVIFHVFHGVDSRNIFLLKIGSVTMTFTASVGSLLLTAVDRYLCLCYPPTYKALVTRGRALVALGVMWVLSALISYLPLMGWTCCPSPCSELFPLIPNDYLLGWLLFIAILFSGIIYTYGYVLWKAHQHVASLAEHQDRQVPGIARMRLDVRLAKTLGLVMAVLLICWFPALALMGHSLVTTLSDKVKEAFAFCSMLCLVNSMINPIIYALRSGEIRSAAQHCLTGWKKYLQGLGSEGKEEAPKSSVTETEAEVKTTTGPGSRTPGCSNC", "test": "dynamic PET/MR of spleen uptake in healthy rats", "format": "in vivo, Wistar rats", "conditions": "single blocking experiment, GW405833 1.5 mg/kg i.v. 10 min prior tracer", "text": "For the uptake studies into the spleen three male Wistar Hun rats (Janvier Laboratories, Le Genest Saint Isle, France) weighing 268 ± 56 g were used. For the uptake studies into the brain, five female Wistar rats weighing 263 ± 13 g carrying the stereotactically injected AAV 2/7-CaMKII0.4-intron-hCB2R D80N (right striatum) and AAV2/7-CaMKII0.4-intron-3flag-eGFP (contralateral, left striatum). Animals were initially anaesthetised with 5% isoflurane and placed on a thermostatically heated animal bed where anaesthesia was maintained with 2% isoflurane in 60% oxygen/38% room air. […] List-mode PET data were binned as a series of attenuation-corrected sinogram frames (12 × 10 s, 6 × 30 s, 5 × 60 s and 10 × 300 s) and were reconstructed by ordered subset expectation maximisation (OSEM3D) with four iterations, six subsets and a voxel size of 0.4 mm^3 (Nucline v2.01, Mediso, Hungary). […] Non-parametrical analyses of achieved time-activity curves (TACs) were performed with Microsoft Excel to determine the time to peak, the TAC peak value and the area-under-the-zero-momentum curve (AUC):(1) AUC0−tx=∫0txcradioactivity × dt where c (radioactivity) is expressed as a standardised uptake value normalised to the bodyweight in g (SUV), the area-under-first-momentum curve (AUMC):(2) AUMC0−tx=∫0txt × cradioactivity × dt and the mean residence time (MRT):(3) MRT=AUMC0−tx/AUC0−tx […]"}}, "note": "Values joined by “and” are separate entries in the source; they are usually repeats but may differ in a detail not shown here. Identical values can stand only once.", "data": [{"smiles": "C[C@H]1CC[C@@H](NC(=O)c2cc3cccnc3n(CCCC[18F])c2=O)CC1", "note": "[[^18F]LU14]", "values": [{"measurement": "intact tracer in spleen (of the total activity detected)", "setting": "[1]", "value": "50 ± 10", "unit": "%"}, {"measurement": "intact tracer in the brain", "setting": "[1]", "value": "82 ± 5% and > 80% and 82%"}, {"measurement": "unchanged tracer in plasma", "setting": "[1]; radio-HPLC", "value": "17 ± 2% and 17%"}, {"measurement": "logD", "setting": "[2]", "value": "3.15 ± 0.25"}, {"measurement": "AUC0–60min in the spleen, blocking versus control", "setting": "[3]", "value": "comparable"}]}]}
